Values of other authors in US20220047626A1, “COMPOSITION OF A SPRAY FORMULA TO CONTROL MASTITIS IN BOVINES” (priority 2018, published 2022).

Settings: stated in the description, no method given

Row | viscosity [cP] | SMILES
1 | 950 | OCC(O)CO [glycerin]
2 | 52 | CC(O)CO (stereo not drawn) [propylene glycol]
3 | 200 | OC[C@@H](O)[C@@H](O)[C@H](O)[C@@H](O)CO [sorbitol]
